In US20210253518A1, “KINASE INHIBITOR” (NISSAN CHEMICAL CORPORATION, priority 2018, published 2021) one finds IC50 and inhibition data, which are given here for 5 compounds.

Read-outs that look alike come from different tables or passages of the source.

This assay concerns the target T1, LATS2 (Homo sapiens, UniProt Q9NRM7).
T1 sequence (Q9NRM7 1-1088): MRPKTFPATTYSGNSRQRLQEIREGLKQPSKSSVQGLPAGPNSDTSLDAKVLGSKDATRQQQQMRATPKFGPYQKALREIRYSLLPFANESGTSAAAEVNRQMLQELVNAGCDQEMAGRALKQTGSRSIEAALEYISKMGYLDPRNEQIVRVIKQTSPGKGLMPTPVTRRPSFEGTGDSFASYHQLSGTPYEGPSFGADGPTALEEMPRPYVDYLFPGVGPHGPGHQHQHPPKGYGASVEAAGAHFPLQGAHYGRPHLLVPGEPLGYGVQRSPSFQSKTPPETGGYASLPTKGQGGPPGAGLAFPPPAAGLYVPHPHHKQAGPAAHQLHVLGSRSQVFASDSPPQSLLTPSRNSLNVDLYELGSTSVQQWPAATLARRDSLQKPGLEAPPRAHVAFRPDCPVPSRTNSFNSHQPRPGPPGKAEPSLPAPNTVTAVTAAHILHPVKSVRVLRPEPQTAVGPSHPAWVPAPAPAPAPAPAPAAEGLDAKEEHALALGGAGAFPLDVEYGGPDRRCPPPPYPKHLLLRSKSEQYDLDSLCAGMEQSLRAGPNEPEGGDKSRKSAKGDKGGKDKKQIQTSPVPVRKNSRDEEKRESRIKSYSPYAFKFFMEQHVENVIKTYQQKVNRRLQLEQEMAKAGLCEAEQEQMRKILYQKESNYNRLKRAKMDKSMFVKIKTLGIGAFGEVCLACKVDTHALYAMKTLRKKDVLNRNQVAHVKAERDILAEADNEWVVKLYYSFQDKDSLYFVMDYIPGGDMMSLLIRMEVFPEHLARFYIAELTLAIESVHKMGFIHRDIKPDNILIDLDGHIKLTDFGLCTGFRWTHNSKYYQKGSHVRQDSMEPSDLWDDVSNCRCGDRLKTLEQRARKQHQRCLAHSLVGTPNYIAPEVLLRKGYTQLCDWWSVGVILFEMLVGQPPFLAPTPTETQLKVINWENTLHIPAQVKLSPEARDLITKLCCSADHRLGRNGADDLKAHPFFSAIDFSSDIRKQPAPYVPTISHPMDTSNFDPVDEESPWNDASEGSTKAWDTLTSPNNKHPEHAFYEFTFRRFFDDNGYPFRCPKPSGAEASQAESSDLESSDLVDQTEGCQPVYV
The experiment in a line: Off-chip Mobility Shift Assay (MSA method), kinase inhibition. Format: biochemical. To be noted: for IC50: 10 steps from 10 μM to 0.3 nM; for inhibition at 0.1 µM: read-out: inhibition (%) LATS2. As to the method: For compound k-1:B-1, inhibitory activity evaluation (calculation of 50% inhibitory concentration (IC50)) was performed on 8 kinds of kinases (CGK2, LATS2, MSK1, p70S6K, PKACα, PKACβ, SGK2, SGK3). The activity was measured using the Off-chip Mobility Shift Assay (MSA method) described below. The compound was added such that the test concentration of k-1:B-1 was in 10 steps from the final concentration of 10 μM to 0.3 nM.
As an analysis method of the data, the mean signal of the control well containing all reaction components was set to 0% inhibition, the mean signal without enzyme addition was set to 100% inhibition, and the inhibition rate was calculated from the mean signal of 2 wells of each test substance test. The IC50 value was obtained by approximating a plot based on the test substance concentration and inhibition rate to a 4 parameter logistics curve by using the Excel Solver add-in and by the non-linear least squares method.
(§1) 5 μL of k-1:B-1 solution at 4-fold concentration, 5 μL of substrate/ATP/metal solution at 4-fold concentration, and 10 μL of kinase solution at 2-fold concentration, each prepared with assay buffer (20 mM HEPES, 0.01% Triton X-100, 2 mM DTT, pH 7.5), were mixed in the wells of a polypropylene 384-well plate and reacted at room temperature for 1 or 5 hr. Successively, 70 μL of Termination Buffer (QuickScout Screening Assist MSA; Carna Biosciences) was added to discontinue the reaction. Then, the substrate peptide and the phosphorylated peptide in the reaction solution were separated and quantified by the LabChip system (Perkin Elmer). The kinase reaction was evaluated by the resultant product ratio (P/(P+S)) calculated from the substrate peptide peak height (S) and the phosphorylated peptide peak height (P).
For compounds k-1:H-7, k-1:H-1, k-1:D-1, k-1:J-1, and k-1:B-1, inhibitory rate at 100 nM was calculated on 8 kinds of kinases (CGK2, LATS2, MSK1, p70S6K, PKACα, PKACβ, SGK2, SGK3). The activity was measured using the MSA method. As an analysis method of the data, the mean signal of the control well containing all reaction components was set to 0% inhibition, the mean signal without enzyme addition was set to 100% inhibition, and the inhibition rate was calculated from the mean signal of 2 wells of each test substance test.
as §1, with “a compound” for “k-1:B-1”
For compounds k-1:I-1, k-1:D-1, k-1:J-1, k-1:H-1, k-1:H-7, k-1:B-1, k-5:H-1, k-1:H-3, k-1:D-4 and k-1:I-10, inhibitory activity evaluation (calculation of IC50) was performed on LATS2. The activity was measured using the Off-chip Mobility Shift Assay (MSA method) described below. The compounds were added such that the test concentration of each compound was in 10 steps from the final concentration of 10 μM to 0.3 nM.
5 μL of k-1:I-1, k-1:D-1, k-1:J-1, k-1:H-1, k-1:H-7, k-1:B-1, k-5:H-1, k-1:H-3, k-1:D-4 and k-1:I-10 solutions at 4-fold concentration, 5 μL of substrate/ATP/metal solution at 4-fold concentration, and 10 μL of kinase solution at 2-fold concentration, each prepared with assay buffer (20 mM HEPES, 0.01% Triton X-100, 2 mM DTT, pH 7.5), were mixed in the wells of a polypropylene 384-well plate and reacted at room temperature for 1 or 5 hr. […]

The IC50 is the point on the concentration scale where inhibition reaches its midpoint. As usually defined, the inhibition is the change of the read-out against control, counted positive when it falls. In the case of `CCC(=NNC(=O)CNc1ccccc1)c1ccc(O)c(C)c1O` [k-1:H-1], the IC50 (MSA method) came out at 12.9 nM. Further, the inhibition at 0.1 µM (at 100 nM, MSA method) is 92.1%.
On to `CC/C(=N\NC(=O)C(C)Nc1ccccc1)c1ccc(O)c(C)c1O` (stereo not shown) [k-1:B-1], for which, for the setting “MSA method”, the IC50 is 5.12 nM. Further, under “at 100 nM, MSA method”, the inhibition at 0.1 µM was found to be 93.8%.
On to `CC/C(=N\NC(=O)NCc1cccc(O)c1)c1ccc(O)c(C)c1O` [k-1:J-1], for which the inhibition at 0.1 µM was found to be 96.2%. Also, the IC50 (MSA method) worked out at 5.26 nM.
For `CC/C(=N\NC(=O)CNc1cccc(O)c1)c1ccc(O)c(C)c1O` [k-1:D-1], in that order: 101% and 1.84 nM.
As for `CCC(=NNC(=O)C(CC)Nc1ccccc1)c1ccc(O)c(C)c1O` (stereo not shown) [k-1:H-7], the half-inhibitory concentration (IC50) (MSA method) came to 6.57 nM. Moreover, the inhibition at 0.1 µM (at 100 nM, MSA method) was 95.8%.
